Measured values as given in US12441679B2, “Acrylamide-substituted indane compounds and therapeutic use thereof” (Sanofi, priority 2020, dated 2025).

Tested on: YAP1-TEAD and TAZ-TEAD activity (TEAD responsive promoter element)
Experiment: TEAD-Luciferase Reporter Assay (8XGTIIC-Luciferase construct stably integrated in tumor cell lines)
Type: cell-based, human
Conditions: 8XGTIIC-Luciferase reporter in tumor cell lines, 48 hrs compound treatment, 10 doses 1-10000 nM
Excerpt: TEAD-Luciferase Reporter Assay
Luciferase-based gene reporter assays were used, employing the TEAD responsive promoter element that are stably integrated to different human tumor cell lines in order to monitor YAP1-TEAD and TAZ-TEAD activity and to study YAP1/TAZ-TEAD activity modulation by small molecule compounds. Luciferase-based gene reporter assays employing the GAPDH promoter element and stably integrated to different human tumor cell lines are used as counter screen control cell lines.
Tumor cell lines with stable integration of the 8XGTIIC-Luciferase construct (Dupont et al., Nature 2011) or the GAPDH-Luciferase control plasmid, are seeded in culture medium in 96-well plates at a density of 8000 cells/well. Following an overnight incubation in a 37° C., 5% CO2 growth chamber, cells are treated with compounds described above at 10 doses ranging between 1 and 10000 nM for 48 hrs. After compound incubation, cells are lysed with Bright-Glo Luciferase Assay System (Promega E2620) and luciferase activity is measured using a luminescent plate reader.
The inhibitory activity of the compounds with respect to luciferase activity is given by the concentration which inhibits 50% of activity of non-treated cells. IC50s are determined with a nonlinear regression model on XLfit software analysis (IDBS, UK).

Row | Compound | IC50 (Homo sapiens) | IC50
1 | C=CC(=O)N(C)c1ccc2c(c1)CCC2Oc1cccc(C(F)(F)F)c1 (centres unmarked) [Example 89, N-methyl-N-(1-(3-(trifluoromethyl)phenoxy)-2,3-dihydro-1H-inden-5-yl)acrylamide] | 1060 nM | –
2 | C=CC(=O)Nc1ccc2c(c1)C(Nc1ccc(C(F)(F)F)cc1)C(F)C2 (centres unmarked) [Example 90, N-[2-fluoro-3-[4-(trifluoromethyl)anilino]-2,3-dihydro-1H-inden-5-yl]acrylamide] | 84 nM | –
3 | C=CC(=O)Nc1ccc2c(c1)C(Nc1cccc(C(F)(F)F)c1)C(F)C2 (centres unmarked) [Example 91, N-(2-fluoro-3-((3-(trifluoromethyl)phenyl)amino)-2,3-dihydro-1H-inden-5-yl)acrylamide] | 209 nM | –
4 | C=CC(=O)Nc1ccc2c(c1)C(Oc1ccc(C(F)(F)F)cc1)C(F)C2 (centres unmarked) [Example 92, N-[2-fluoro-3-[4-(trifluoromethyl)phenoxy]-2,3-dihydro-1H-inden-5-yl]acrylamide] | 95 nM | –
5 | C=CC(=O)N(C)c1ccc2c(c1)CC(C)C2Nc1cccc(C(F)(F)F)c1 (centres unmarked) [Example 93, N-methyl-N-(2-methyl-1-((3-(trifluoromethyl)phenyl)amino)-2,3-dihydro-1H-inden-5-yl)acrylamide] | 513 nM | –
6 | (R)—N-(1-((3-(trifluoromethyl)phenyl)amino)-2,3-dihydro-1H-inden-5-yl)acrylamide [Example 2] | – | 38 nM
7 | (S)—N-(1-((3-(trifluoromethyl)phenyl)amino)-2,3-dihydro-1H-inden-5-yl)acrylamide [Example 3] | – | 109 nM
8 | (S)—N-(1-((4-fluorophenyl)amino)-2,3-dihydro-1H-inden-5-yl)acrylamide [Example 6] | – | 31 nM
